# Laboratory results published in ChEMBL document CHEMBL3091409, “Potent P2Y1 urea antagonists bearing various cyclic amine scaffolds” (Bioorg Med Chem Lett, 2013).
# Assays:
# P2Y purinoceptor 1 = P2Y purinoceptor 1 (Homo sapiens, UniProt P47900); test: Displacement of [beta-33P]-2MeS-ADP from human P2Y1 receptor transfected in HEK293 cells after 1 hr by scintillation counting method; format: cell-based
# Platelet = test: Inhibition of ADP-induced platelet aggregation in human platelet rich plasma; format: functional
# [1] = target: Voltage-gated inwardly rectifying potassium channel KCNH2 (Homo sapiens, UniProt Q12809); test: Inhibition of human ERG flux
# [2] = Plasma protein binding in human plasma; format: ADME, cell-free; conditions: read-out: PPB (converted)
# [3] = Half life in rat at 2 mg/kg, iv and 5 mg/kg, po; format: ADME, organism-based; conditions: in vivo
# [4] = Volume of distribution at steady state in rat at 2 mg/kg, iv and 5 mg/kg, po; format: ADME, organism-based; conditions: in vivo, read-out: Vdss
# [5] = Oral bioavailability in rat at 5 mg/kg; format: ADME, organism-based; conditions: in vivo
# [6] = Metabolic stability in rat liver microsomes assessed as compound remaining after 10 mins; format: ADME; conditions: read-out: Stability
# [7] = target: Sodium-dependent noradrenaline transporter (Homo sapiens) (UniProt P23975); test: Inhibition of NET (unknown origin); conditions: concentration not given here
# [8] = Aqueous solubility of the compound in partially crystalline form in […] phosphate buffer at pH 6.5; format: physicochemical
# [9] = target: D(2) dopamine receptor (Homo sapiens) (UniProt P14416); test: Inhibition of D2 receptor (unknown origin); conditions: concentration not given here
# [10] = Clearance in rat at 2 mg/kg, iv and 5 mg/kg, po; format: ADME, organism-based; conditions: in vivo
# [11] = Permeability of the compound by PAMPA; format: ADME; conditions: read-out: permeability
# [12] = target: 5-hydroxytryptamine receptor 2A (Homo sapiens) (UniProt P28223); test: Inhibition of 5-HT2A receptor (unknown origin); conditions: concentration not given here
# [13] = Aqueous solubility of the compound in crystalline form in […] phosphate buffer at pH 6.5; format: physicochemical
# [14] = Permeability from apical to basolateral side of human Caco2 cells; format: ADME, cell-based; conditions: Caco-2, read-out: permeability
# [15] = Aqueous solubility of the compound in amorphous form in […] phosphate buffer at pH 6.5; format: physicochemical
# P2Y purinoceptor 1, sequence (P47900 whole entry): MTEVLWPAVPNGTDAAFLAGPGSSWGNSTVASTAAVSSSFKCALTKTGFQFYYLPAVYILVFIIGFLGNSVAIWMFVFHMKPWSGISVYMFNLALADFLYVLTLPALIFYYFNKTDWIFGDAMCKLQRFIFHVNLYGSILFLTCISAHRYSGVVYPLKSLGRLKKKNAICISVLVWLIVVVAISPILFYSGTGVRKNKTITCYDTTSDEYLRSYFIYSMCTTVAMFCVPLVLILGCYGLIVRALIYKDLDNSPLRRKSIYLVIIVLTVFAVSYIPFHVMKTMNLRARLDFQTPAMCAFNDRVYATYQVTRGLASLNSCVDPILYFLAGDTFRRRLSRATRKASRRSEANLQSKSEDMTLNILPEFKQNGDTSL
# Voltage-gated inwardly rectifying potassium channel KCNH2, sequence (Q12809 whole entry): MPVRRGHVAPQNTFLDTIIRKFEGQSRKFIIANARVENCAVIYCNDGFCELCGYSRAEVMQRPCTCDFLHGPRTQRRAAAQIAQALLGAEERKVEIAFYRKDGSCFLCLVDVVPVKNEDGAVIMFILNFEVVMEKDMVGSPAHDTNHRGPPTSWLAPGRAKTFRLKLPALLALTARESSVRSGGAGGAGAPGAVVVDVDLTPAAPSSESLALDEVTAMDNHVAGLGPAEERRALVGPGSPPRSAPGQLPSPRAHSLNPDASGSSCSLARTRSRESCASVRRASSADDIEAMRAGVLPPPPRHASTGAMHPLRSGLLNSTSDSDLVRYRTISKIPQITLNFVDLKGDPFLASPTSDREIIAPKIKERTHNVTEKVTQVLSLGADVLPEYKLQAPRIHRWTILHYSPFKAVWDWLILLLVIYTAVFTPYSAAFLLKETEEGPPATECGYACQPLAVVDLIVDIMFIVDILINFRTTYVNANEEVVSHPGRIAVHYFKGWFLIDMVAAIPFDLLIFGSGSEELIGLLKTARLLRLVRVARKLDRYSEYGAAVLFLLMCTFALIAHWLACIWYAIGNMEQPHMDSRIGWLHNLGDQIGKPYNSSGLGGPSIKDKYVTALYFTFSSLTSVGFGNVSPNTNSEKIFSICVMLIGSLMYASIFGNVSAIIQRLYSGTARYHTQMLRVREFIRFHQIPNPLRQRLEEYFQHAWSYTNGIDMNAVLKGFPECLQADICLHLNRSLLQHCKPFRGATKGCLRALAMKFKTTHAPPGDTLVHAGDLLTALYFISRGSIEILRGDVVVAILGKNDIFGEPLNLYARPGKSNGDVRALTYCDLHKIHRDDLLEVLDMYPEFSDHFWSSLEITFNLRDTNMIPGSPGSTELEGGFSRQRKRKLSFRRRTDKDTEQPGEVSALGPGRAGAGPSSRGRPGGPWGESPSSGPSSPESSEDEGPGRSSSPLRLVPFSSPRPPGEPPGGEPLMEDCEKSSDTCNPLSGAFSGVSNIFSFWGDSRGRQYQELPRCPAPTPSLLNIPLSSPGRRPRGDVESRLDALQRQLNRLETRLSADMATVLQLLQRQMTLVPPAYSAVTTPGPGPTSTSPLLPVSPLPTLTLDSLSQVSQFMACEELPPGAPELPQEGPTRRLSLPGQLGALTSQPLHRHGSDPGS
# 5-hydroxytryptamine receptor 2A (Homo sapiens), sequence (P28223 whole entry): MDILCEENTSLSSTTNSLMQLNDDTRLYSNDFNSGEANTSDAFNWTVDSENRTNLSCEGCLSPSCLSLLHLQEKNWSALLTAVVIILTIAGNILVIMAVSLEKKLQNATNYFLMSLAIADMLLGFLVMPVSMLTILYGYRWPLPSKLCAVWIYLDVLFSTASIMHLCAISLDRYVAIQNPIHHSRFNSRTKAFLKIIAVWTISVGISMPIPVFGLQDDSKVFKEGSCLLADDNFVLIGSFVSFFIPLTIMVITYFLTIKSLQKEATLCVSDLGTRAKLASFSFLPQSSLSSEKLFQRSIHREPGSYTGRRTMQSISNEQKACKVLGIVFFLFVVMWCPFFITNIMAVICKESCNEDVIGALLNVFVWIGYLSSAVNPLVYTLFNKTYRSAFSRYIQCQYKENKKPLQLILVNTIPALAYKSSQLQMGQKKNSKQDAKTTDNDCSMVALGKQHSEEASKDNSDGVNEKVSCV
# D(2) dopamine receptor (Homo sapiens), sequence (P14416 whole entry): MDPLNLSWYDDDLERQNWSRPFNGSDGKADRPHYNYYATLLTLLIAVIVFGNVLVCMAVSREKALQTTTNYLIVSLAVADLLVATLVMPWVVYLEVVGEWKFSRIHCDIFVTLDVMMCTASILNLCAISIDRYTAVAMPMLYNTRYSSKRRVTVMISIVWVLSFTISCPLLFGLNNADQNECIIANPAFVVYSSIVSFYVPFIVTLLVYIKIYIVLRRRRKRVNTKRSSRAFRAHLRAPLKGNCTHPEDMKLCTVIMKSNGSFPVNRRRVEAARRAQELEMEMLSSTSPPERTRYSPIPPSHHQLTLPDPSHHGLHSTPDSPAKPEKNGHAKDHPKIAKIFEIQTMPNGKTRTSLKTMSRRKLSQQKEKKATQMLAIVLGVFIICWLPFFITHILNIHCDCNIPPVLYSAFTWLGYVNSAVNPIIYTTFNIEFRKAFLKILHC
# Sodium-dependent noradrenaline transporter (Homo sapiens), sequence (P23975 whole entry): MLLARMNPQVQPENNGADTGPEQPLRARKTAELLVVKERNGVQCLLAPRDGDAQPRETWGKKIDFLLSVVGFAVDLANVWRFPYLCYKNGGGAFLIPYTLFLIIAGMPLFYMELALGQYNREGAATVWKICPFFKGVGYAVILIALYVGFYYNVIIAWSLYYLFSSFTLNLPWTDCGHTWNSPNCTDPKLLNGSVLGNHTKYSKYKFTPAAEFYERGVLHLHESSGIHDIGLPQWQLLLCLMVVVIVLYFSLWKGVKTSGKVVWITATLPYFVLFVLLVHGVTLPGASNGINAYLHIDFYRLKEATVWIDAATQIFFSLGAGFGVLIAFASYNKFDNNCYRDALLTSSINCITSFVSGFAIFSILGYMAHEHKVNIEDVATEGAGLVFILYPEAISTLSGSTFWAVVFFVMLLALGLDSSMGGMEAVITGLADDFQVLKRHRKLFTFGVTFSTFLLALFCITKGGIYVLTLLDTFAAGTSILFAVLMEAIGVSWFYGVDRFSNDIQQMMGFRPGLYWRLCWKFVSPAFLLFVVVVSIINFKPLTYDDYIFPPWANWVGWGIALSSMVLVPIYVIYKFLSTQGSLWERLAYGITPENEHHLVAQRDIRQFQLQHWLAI
SMILES,Ki (P2Y purinoceptor 1) [nM],IC50 (Platelet) [nM],also measured
O=C(Nc1ccc(OC(F)(F)F)cc1)Nc1cccnc1Oc1cccc2c1CCN(Cc1cccc(O)c1)C2,2200,,
O=C(Nc1ccc(OC(F)(F)F)cc1)Nc1cccnc1Oc1cccc2c1CCN(Cc1ccncc1)C2,1040,,
O=C(Nc1ccc(OC(F)(F)F)cc1)Nc1cccnc1Oc1cccc2c1CCN(Cc1cccnc1)C2,1200,,
O=C(Nc1ccc(OC(F)(F)F)cc1)Nc1cccnc1Oc1cccc2c1CCN(Cc1ccccn1)C2,1100,,
O=C(Nc1ccc(OC(F)(F)F)cc1)Nc1cccnc1Oc1cccc2c1CCN(Cc1ccccc1O)C2,260,,
O=C(Nc1ccc(OC(F)(F)F)cc1)Nc1cccnc1Oc1cccc2c1CCNC2,3000,,
CC(C)(C)CN1CCC(c2ccccc2Oc2ncccc2NC(=O)Nc2ccc(OC(F)(F)F)cc2)CC1,16,2400,IC50 [1]: 4600 nM; fraction unbound [2]: 0.001; half-life [3]: 11 h; Vd [4]: 14 L/kg; bioavailability [5]: 89%; remaining at 10 min [6]: 96%; inhibition [7]: > 50%; solubility [8]: 105 µg/mL; inhibition [9]: > 50%; clearance [10]: 18 mL/min/kg; Papp [11]: 28.6 ×10⁻⁶ cm/s; inhibition [12]: > 50%
CC(C)CN1CCC(c2ccccc2Oc2ncccc2NC(=O)Nc2ccc(OC(F)(F)F)cc2)CC1,150,7600,IC50 [1]: 6000 nM
O=C(Nc1ccc(OC(F)(F)F)cc1)Nc1cccnc1Oc1cccc2c1CCN(Cc1ccc(O)cc1)C2,3400,,
CN1Cc2cccc(Oc3ncccc3NC(=O)Nc3ccc(OC(F)(F)F)cc3)c2C1C(C)(C)C (stereo not given),57,1200,IC50 [1]: 7200 nM; fraction unbound [2]: 0.003; Papp A→B [14]: < 1.5 ×10⁻⁶ cm/s; remaining at 10 min [6]: 6%; solubility [15]: 270 µg/mL; Papp [11]: 78.4 ×10⁻⁶ cm/s
O=C(Nc1ccc(OC(F)(F)F)cc1)Nc1cccnc1Oc1ccccc1C1CCN(Cc2ccccc2)CC1,98,12700,
O=C(Nc1ccc(OC(F)(F)F)cc1)Nc1cccnc1Oc1cccc2c1CCN(Cc1ccccc1)C2,55,,

# Further lines, with some results ahead:
Ki (P2Y purinoceptor 1) [nM],IC50 (Platelet) [nM],SMILES,also measured
190,,CC(C)(C)CCN1CCc2c(cccc2Oc2ncccc2NC(=O)Nc2ccc(OC(F)(F)F)cc2)C1,
290,,O=C(Nc1ccc(OC(F)(F)F)cc1)Nc1cccnc1Oc1cccc2c1CCN(CCc1ccccc1)C2,
29,> 10000,CC(C)(C)CN1Cc2cccc(Oc3ncccc3NC(=O)Nc3ccc(OC(F)(F)F)cc3)c2C1,
3700,,CN1Cc2cccc(Oc3ncccc3NC(=O)Nc3ccc(OC(F)(F)F)cc3)c2C1,
60,,CC(C)CN1CCc2c(cccc2Oc2ncccc2NC(=O)Nc2ccc(OC(F)(F)F)cc2)C1,
560,,CC(C)N1CCc2c(cccc2Oc2ncccc2NC(=O)Nc2ccc(OC(F)(F)F)cc2)C1,
1700,,CCN1CCc2c(cccc2Oc2ncccc2NC(=O)Nc2ccc(OC(F)(F)F)cc2)C1,
11,3100,CC(C)(C)CN1CCc2c(cccc2Oc2ncccc2NC(=O)Nc2ccc(OC(F)(F)F)cc2)C1,solubility [13]: 3 µg/mL; remaining at 10 min [6]: 27%
68,> 10000,CC(C)CN1Cc2cccc(Oc3ncccc3NC(=O)Nc3ccc(OC(F)(F)F)cc3)c2C1,
620,,CCCN1CCc2c(cccc2Oc2ncccc2NC(=O)Nc2ccc(OC(F)(F)F)cc2)C1,
